Measured values taken from ChEMBL document CHEMBL1201862, “PubChem BioAssay data set” (2004).
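Grown in 96-well plates, cells were treated for 48 hours with each compound at five concentrations. Insufficient inhibition: endpoint recorded as highest concentration tested. At the GI50, growth is halved.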 Calls of active or inactive are those of the source. No stated cut-off is given here; in the data, active = GI50 up to about 1.1 µM and inactive = higher.

Columns and labels:
Assay in all cases: growth of human tumour cells (NCI), 48 h
CCRF-CEM = system: CCRF-CEM
NCI-H460 = system: NCI-H460
SW-620 = system: SW-620
LOX IMVI = system: LOX IMVI
SF-268 = system: SF-268
HT-29 = system: HT-29
A549 = system: A549
Malme-3M = system: Malme-3M
SN12C = system: SN12C
UO-31 = system: UO-31
EKVX = system: EKVX
HL-60 = system: HL-60
HOP-62 = system: HOP-62
OVCAR-8 = system: OVCAR-8
MOLT-4 = system: MOLT-4
SR = system: SR

| Structure (SMILES) | GI50 (CCRF-CEM) | GI50 (NCI-H460) | GI50 (SW-620) | GI50 (LOX IMVI) | GI50 (SF-268) | GI50 (HT-29) | GI50 (A549) | GI50 (Malme-3M) | GI50 (SN12C) | GI50 (UO-31) | GI50 (EKVX) | GI50 (HL-60) | GI50 (HOP-62) | GI50 (OVCAR-8) | GI50 (MOLT-4) | GI50 (SR) |
| --- | --- | --- | --- | --- | --- | --- | --- | --- | --- | --- | --- | --- | --- | --- | --- | --- |
| COC(=O)c1nc(N)nc(O)c1CCCCCc1c(O)nc(N)nc1C(=O)OC | > 50 µM (inactive) | > 50 µM (inactive) | > 50 µM (inactive) | > 50 µM (inactive) | > 50 µM (inactive) | > 50 µM (inactive) | > 50 µM (inactive) | > 50 µM (inactive) | > 50 µM (inactive) | > 50 µM (inactive) | > 50 µM (inactive) | > 50 µM (inactive) | > 50 µM (inactive) | > 50 µM (inactive) | – | – |
| CCn1c2ccccc2c2ccc3c(c21)C(=O)C=CC3=O | 0.375 µM (active) | 20.2 µM (inactive) | – | – | 19.9 µM (inactive) | 21 µM (inactive) | 43.6 µM (inactive) | 9.86 µM (inactive) | 18.2 µM (inactive) | 10 µM (inactive) | 12.1 µM (inactive) | 2.43 µM (inactive) | 7.52 µM (inactive) | 13.7 µM (inactive) | 2.07 µM (inactive) | – |
| CC1(c2ccccc2)CC(c2cccc([N+](=O)[O-])c2)=NO1 (stereo not drawn) | – | > 100 µM (inactive) | > 100 µM (inactive) | – | > 100 µM (inactive) | 73.1 µM (inactive) | > 100 µM (inactive) | > 100 µM (inactive) | > 100 µM (inactive) | 82.8 µM (inactive) | – | – | > 100 µM (inactive) | > 100 µM (inactive) | 56.2 µM (inactive) | > 100 µM (inactive) |
| CCN(CC)c1c(C(=O)/C=C/c2ccc(F)cc2)c(-c2ccccc2)nn(C)c1=O | 2.11 µM (inactive) | 4.49 µM (inactive) | 8.59 µM (inactive) | 7.35 µM (inactive) | 8.79 µM (inactive) | 6.5 µM (inactive) | 8.69 µM (inactive) | 13.3 µM (inactive) | 6.93 µM (inactive) | 11.3 µM (inactive) | 13.8 µM (inactive) | 2.9 µM (inactive) | 11.6 µM (inactive) | 4.7 µM (inactive) | 2.23 µM (inactive) | – |
| NC1=NN(c2ccccc2)C(=O)C1C(=O)C(=O)Nc1ccc(Cl)c(Cl)c1 (stereo not drawn) | 96.4 µM (inactive) | > 100 µM (inactive) | > 100 µM (inactive) | – | > 100 µM (inactive) | > 100 µM (inactive) | > 100 µM (inactive) | > 100 µM (inactive) | > 100 µM (inactive) | > 100 µM (inactive) | > 100 µM (inactive) | 86.1 µM (inactive) | > 100 µM (inactive) | > 100 µM (inactive) | > 100 µM (inactive) | > 100 µM (inactive) |
| COc1ccc2ccnc(Cc3ccc(OCc4ccccc4)c(OC)c3)c2c1 | 27.4 µM (inactive) | 18.9 µM (inactive) | 33.5 µM (inactive) | – | 22.1 µM (inactive) | 27.8 µM (inactive) | 24.4 µM (inactive) | 16.9 µM (inactive) | 14.2 µM (inactive) | 6 µM (inactive) | 17.9 µM (inactive) | – | 15.8 µM (inactive) | 19.1 µM (inactive) | 17.6 µM (inactive) | – |
| COc1cc(C(CC(OC)OC)=C(C#N)C#N)cc(OC)c1OC | 5.36 µM (inactive) | 6.52 µM (inactive) | 29.7 µM (inactive) | 10.5 µM (inactive) | 41.6 µM (inactive) | 5.6 µM (inactive) | 28.8 µM (inactive) | 26.1 µM (inactive) | 29.2 µM (inactive) | 28.1 µM (inactive) | 34.9 µM (inactive) | 19.5 µM (inactive) | – | 20 µM (inactive) | 7.26 µM (inactive) | 14.5 µM (inactive) |
| C/C(CC(=O)Nc1cc(Cl)c(Cl)cc1Cl)=N\NS(=O)(=O)c1ccc(C)cc1 | 27.5 µM (inactive) | 38.8 µM (inactive) | 58.3 µM (inactive) | 39.3 µM (inactive) | 29.3 µM (inactive) | 51.3 µM (inactive) | 45.7 µM (inactive) | 31.2 µM (inactive) | – | 21 µM (inactive) | 35.3 µM (inactive) | 24.1 µM (inactive) | 31.8 µM (inactive) | 39.3 µM (inactive) | 29.5 µM (inactive) | – |
| CON(C)C(=O)CCCO | > 100 µM (inactive) | > 100 µM (inactive) | > 100 µM (inactive) | – | > 100 µM (inactive) | > 100 µM (inactive) | > 100 µM (inactive) | > 100 µM (inactive) | > 100 µM (inactive) | > 100 µM (inactive) | > 100 µM (inactive) | > 100 µM (inactive) | > 100 µM (inactive) | > 100 µM (inactive) | > 100 µM (inactive) | > 100 µM (inactive) |
| O=[N+]([O-])c1cccc(C(O)/C(=N/O)c2nc3ccc(Cl)cc3nc2O)c1 (stereo not drawn) | > 100 µM (inactive) | > 100 µM (inactive) | > 100 µM (inactive) | > 100 µM (inactive) | – | > 100 µM (inactive) | > 100 µM (inactive) | > 100 µM (inactive) | > 100 µM (inactive) | > 100 µM (inactive) | > 100 µM (inactive) | > 100 µM (inactive) | > 100 µM (inactive) | > 100 µM (inactive) | > 100 µM (inactive) | – |
| Cc1c2ccccc2c(=O)n2c(-c3ccccn3)cccc12 | > 100 µM (inactive) | > 100 µM (inactive) | > 100 µM (inactive) | > 100 µM (inactive) | > 100 µM (inactive) | > 100 µM (inactive) | > 100 µM (inactive) | > 100 µM (inactive) | > 100 µM (inactive) | > 100 µM (inactive) | > 100 µM (inactive) | > 100 µM (inactive) | > 100 µM (inactive) | > 100 µM (inactive) | 79.8 µM (inactive) | 54 µM (inactive) |
| O=C(Nc1ccccc1-c1nc2ccccc2[nH]c1=O)c1ccccc1 | > 100 µM (inactive) | 21.5 µM (inactive) | 27.9 µM (inactive) | 24.3 µM (inactive) | 22.9 µM (inactive) | 37.3 µM (inactive) | 25.9 µM (inactive) | 32.1 µM (inactive) | 27.3 µM (inactive) | 19.6 µM (inactive) | 25.3 µM (inactive) | – | 19.5 µM (inactive) | 22.9 µM (inactive) | > 100 µM (inactive) | – |
| CCOC(=O)C1(CC)CCCCC(=O)N1 (stereo not drawn) | > 100 µM (inactive) | > 100 µM (inactive) | > 100 µM (inactive) | > 100 µM (inactive) | > 100 µM (inactive) | > 100 µM (inactive) | > 100 µM (inactive) | > 100 µM (inactive) | > 100 µM (inactive) | > 100 µM (inactive) | > 100 µM (inactive) | 36.2 µM (inactive) | > 100 µM (inactive) | > 100 µM (inactive) | – | – |
| Clc1ccc(Nc2nc3ccccc3nc2-c2cccs2)cc1Cl | 27.2 µM (inactive) | 22.7 µM (inactive) | 85.7 µM (inactive) | – | 36.3 µM (inactive) | 25.3 µM (inactive) | 29.9 µM (inactive) | > 100 µM (inactive) | 89.9 µM (inactive) | 34.8 µM (inactive) | 69.5 µM (inactive) | 12.2 µM (inactive) | > 100 µM (inactive) | 19.7 µM (inactive) | 14.8 µM (inactive) | 22.8 µM (inactive) |
| CS(=O)(=O)OCCN1CCN(C(=O)c2ccc(Cl)c3c(Nc4ccc(S(=O)(=O)N=C(N)N)cc4)c4ccccc4nc23)CC1 | > 100 µM (inactive) | > 100 µM (inactive) | – | – | > 100 µM (inactive) | > 100 µM (inactive) | > 100 µM (inactive) | > 100 µM (inactive) | > 100 µM (inactive) | > 100 µM (inactive) | – | > 100 µM (inactive) | > 100 µM (inactive) | > 100 µM (inactive) | > 100 µM (inactive) | > 100 µM (inactive) |
| CCN(CC)Cc1cc(Nc2ccnc3ccc4nn(C)nc4c23)ccc1O | > 100 µM (inactive) | 5.64 µM (inactive) | 5.55 µM (inactive) | 7.73 µM (inactive) | 13.6 µM (inactive) | 4.7 µM (inactive) | 21.1 µM (inactive) | 16.9 µM (inactive) | 11.3 µM (inactive) | 11.9 µM (inactive) | – | 84.9 µM (inactive) | 16.9 µM (inactive) | 11.4 µM (inactive) | 6.58 µM (inactive) | 74.6 µM (inactive) |
| CSc1ccc2c(cc1=O)[C@@H](NC(=O)c1ccc(Cl)cc1)CCc1cc(O)c(O)c(O)c1-2 | 28.1 µM (inactive) | 43.5 µM (inactive) | 19.5 µM (inactive) | 18.6 µM (inactive) | > 100 µM (inactive) | > 100 µM (inactive) | 53 µM (inactive) | > 100 µM (inactive) | 24.5 µM (inactive) | > 100 µM (inactive) | 69.2 µM (inactive) | 27.5 µM (inactive) | 57.4 µM (inactive) | 50 µM (inactive) | 26.3 µM (inactive) | – |
| Cc1c(O)c(=O)ccn1C1OC(CO)C(O)C1O (stereo not drawn) | 39.5 µM (inactive) | 59.4 µM (inactive) | > 100 µM (inactive) | 56.2 µM (inactive) | > 100 µM (inactive) | > 100 µM (inactive) | > 100 µM (inactive) | > 100 µM (inactive) | > 100 µM (inactive) | > 100 µM (inactive) | > 100 µM (inactive) | 17.4 µM (inactive) | > 100 µM (inactive) | > 100 µM (inactive) | 67.1 µM (inactive) | > 100 µM (inactive) |
| Cc1cc2c(ccc3c(C)cc(=O)oc32)o1 | > 100 µM (inactive) | > 100 µM (inactive) | > 100 µM (inactive) | > 100 µM (inactive) | > 81.3 µM (inactive) | > 100 µM (inactive) | > 100 µM (inactive) | > 100 µM (inactive) | > 100 µM (inactive) | 98.9 µM (inactive) | > 100 µM (inactive) | – | > 100 µM (inactive) | > 100 µM (inactive) | > 100 µM (inactive) | > 100 µM (inactive) |
